Measured values as given in paper PMC11027041 (RSC Advances, 2024).

Legend:
HDAC2 = HDAC2 (Homo sapiens, UniProt Q92769); assay: In vitro HDAC enzyme assay; type: biochemical
HDAC7 = HDAC7 (Homo sapiens, UniProt Q8WUI4); assay: In vitro HDAC enzyme assay; type: biochemical
HDAC8 = HDAC8 (Homo sapiens, UniProt Q9BY41); assay: In vitro HDAC enzyme assay; type: biochemical
HDAC9 = HDAC9 (Homo sapiens, UniProt Q9UKV0); assay: In vitro HDAC enzyme assay; type: biochemical
HDAC11 = HDAC11 (Homo sapiens, UniProt Q96DB2); assay: In vitro HDAC enzyme assay; type: biochemical
Sequence of HDAC11 (Q96DB2 whole entry): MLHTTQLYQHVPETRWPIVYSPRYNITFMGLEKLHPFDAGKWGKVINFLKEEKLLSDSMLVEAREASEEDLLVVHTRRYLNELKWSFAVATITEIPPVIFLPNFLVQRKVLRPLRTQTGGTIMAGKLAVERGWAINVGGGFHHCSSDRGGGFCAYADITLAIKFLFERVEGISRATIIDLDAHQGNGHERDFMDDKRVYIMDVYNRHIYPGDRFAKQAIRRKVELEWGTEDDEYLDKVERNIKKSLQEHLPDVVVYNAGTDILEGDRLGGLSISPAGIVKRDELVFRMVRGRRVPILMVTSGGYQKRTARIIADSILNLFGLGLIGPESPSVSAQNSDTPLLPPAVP

[1] = tested on: colon cancer cell line HCT-116; assay: Cell viability assay; type: cell-based; details: Homo sapiens, HCT-116, 72 h, read-out: Antiproliferative IC50 HCT116
HL60 = assay: NCI-60 antiproliferative screening; type: cell-based; details: Homo sapiens, HL-60, read-out: percent inhibition
K-562 = assay: NCI-60 antiproliferative screening; type: cell-based; details: Homo sapiens, K562, read-out: percent inhibition
RPMI-8226 = assay: NCI-60 antiproliferative screening; type: cell-based; details: Homo sapiens, RPMI-8226, read-out: percent inhibition
A549/ATCC = assay: NCI-60 antiproliferative screening; type: cell-based; details: Homo sapiens, A549, read-out: percent inhibition
EKVX = assay: NCI-60 antiproliferative screening; type: cell-based; details: Homo sapiens, read-out: percent inhibition
HOP-62 = assay: NCI-60 antiproliferative screening; type: cell-based; details: Homo sapiens, HOP-62, read-out: percent inhibition
HOP-92 = assay: NCI-60 antiproliferative screening; type: cell-based; details: Homo sapiens, HOP-92, read-out: percent inhibition
NCI-H226 = assay: NCI-60 antiproliferative screening; type: cell-based; details: Homo sapiens, NCI-H226, read-out: percent inhibition
NCI-H23 = assay: NCI-60 antiproliferative screening; type: cell-based; details: Homo sapiens, NCI-H23, read-out: percent inhibition
NCI-H322M = assay: NCI-60 antiproliferative screening; type: cell-based; details: Homo sapiens, read-out: percent inhibition
NCI-H522 = assay: NCI-60 antiproliferative screening; type: cell-based; details: Homo sapiens, NCI-H522, read-out: percent inhibition
COLO 205 = assay: NCI-60 antiproliferative screening; type: cell-based; details: Homo sapiens, COLO 205, read-out: percent inhibition
KM12 = assay: NCI-60 antiproliferative screening; type: cell-based; details: Homo sapiens, KM12, read-out: percent inhibition
SF-295 = assay: NCI-60 antiproliferative screening; type: cell-based; details: Homo sapiens, SF-295, read-out: percent inhibition
U251 = assay: NCI-60 antiproliferative screening; type: cell-based; details: Homo sapiens, U-251, read-out: percent inhibition
MALME-3M = assay: NCI-60 antiproliferative screening; type: cell-based; details: Homo sapiens, read-out: percent inhibition
M14 = assay: NCI-60 antiproliferative screening; type: cell-based; details: Homo sapiens, M14, read-out: percent inhibition
UACC-257 = assay: NCI-60 antiproliferative screening; type: cell-based; details: Homo sapiens, UACC-257, read-out: percent inhibition
OVCAR-3 = assay: NCI-60 antiproliferative screening; type: cell-based; details: Homo sapiens, OVCAR-3, read-out: percent inhibition
OVCAR-4 = assay: NCI-60 antiproliferative screening; type: cell-based; details: Homo sapiens, OVCAR-4, read-out: percent inhibition
OVCAR-8 = assay: NCI-60 antiproliferative screening; type: cell-based; details: Homo sapiens, OVCAR-8, read-out: percent inhibition
NCI/ADR-RES = assay: NCI-60 antiproliferative screening; type: cell-based; details: Homo sapiens, read-out: percent inhibition
786-0 = assay: NCI-60 antiproliferative screening; type: cell-based; details: Homo sapiens, 786-0, read-out: percent inhibition
A498 = assay: NCI-60 antiproliferative screening; type: cell-based; details: Homo sapiens, A498, read-out: percent inhibition
SN12C = assay: NCI-60 antiproliferative screening; type: cell-based; details: Homo sapiens, read-out: percent inhibition
PC-3 = assay: NCI-60 antiproliferative screening; type: cell-based; details: Homo sapiens, PC-3, read-out: percent inhibition
BT-549 = assay: NCI-60 antiproliferative screening; type: cell-based; details: Homo sapiens, BT-549, read-out: percent inhibition

Sequence of HDAC7 (Q8WUI4 whole entry): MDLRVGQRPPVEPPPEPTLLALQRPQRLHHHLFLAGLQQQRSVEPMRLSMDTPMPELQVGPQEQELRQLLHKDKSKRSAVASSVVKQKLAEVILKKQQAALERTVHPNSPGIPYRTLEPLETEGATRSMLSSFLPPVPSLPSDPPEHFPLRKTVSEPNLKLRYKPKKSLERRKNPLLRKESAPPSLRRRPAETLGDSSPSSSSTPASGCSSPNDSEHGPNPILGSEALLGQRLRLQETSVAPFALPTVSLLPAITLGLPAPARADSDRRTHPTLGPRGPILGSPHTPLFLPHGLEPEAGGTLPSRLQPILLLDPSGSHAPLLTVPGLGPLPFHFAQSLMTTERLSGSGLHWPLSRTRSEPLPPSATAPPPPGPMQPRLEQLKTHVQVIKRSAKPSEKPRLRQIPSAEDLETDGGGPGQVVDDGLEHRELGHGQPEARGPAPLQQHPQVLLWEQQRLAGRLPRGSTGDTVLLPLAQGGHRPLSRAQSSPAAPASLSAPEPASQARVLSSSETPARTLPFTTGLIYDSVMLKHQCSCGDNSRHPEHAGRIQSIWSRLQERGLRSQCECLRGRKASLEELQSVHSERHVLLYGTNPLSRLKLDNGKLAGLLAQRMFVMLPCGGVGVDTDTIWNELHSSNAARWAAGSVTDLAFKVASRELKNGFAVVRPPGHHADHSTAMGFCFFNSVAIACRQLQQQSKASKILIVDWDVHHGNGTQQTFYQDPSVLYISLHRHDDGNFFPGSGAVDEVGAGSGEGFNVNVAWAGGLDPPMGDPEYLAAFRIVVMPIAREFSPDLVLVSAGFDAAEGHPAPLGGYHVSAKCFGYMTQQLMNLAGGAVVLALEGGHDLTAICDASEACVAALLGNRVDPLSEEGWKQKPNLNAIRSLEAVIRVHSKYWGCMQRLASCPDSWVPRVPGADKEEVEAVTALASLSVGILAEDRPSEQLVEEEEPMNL
Sequence of HDAC9 (Q9UKV0 whole entry): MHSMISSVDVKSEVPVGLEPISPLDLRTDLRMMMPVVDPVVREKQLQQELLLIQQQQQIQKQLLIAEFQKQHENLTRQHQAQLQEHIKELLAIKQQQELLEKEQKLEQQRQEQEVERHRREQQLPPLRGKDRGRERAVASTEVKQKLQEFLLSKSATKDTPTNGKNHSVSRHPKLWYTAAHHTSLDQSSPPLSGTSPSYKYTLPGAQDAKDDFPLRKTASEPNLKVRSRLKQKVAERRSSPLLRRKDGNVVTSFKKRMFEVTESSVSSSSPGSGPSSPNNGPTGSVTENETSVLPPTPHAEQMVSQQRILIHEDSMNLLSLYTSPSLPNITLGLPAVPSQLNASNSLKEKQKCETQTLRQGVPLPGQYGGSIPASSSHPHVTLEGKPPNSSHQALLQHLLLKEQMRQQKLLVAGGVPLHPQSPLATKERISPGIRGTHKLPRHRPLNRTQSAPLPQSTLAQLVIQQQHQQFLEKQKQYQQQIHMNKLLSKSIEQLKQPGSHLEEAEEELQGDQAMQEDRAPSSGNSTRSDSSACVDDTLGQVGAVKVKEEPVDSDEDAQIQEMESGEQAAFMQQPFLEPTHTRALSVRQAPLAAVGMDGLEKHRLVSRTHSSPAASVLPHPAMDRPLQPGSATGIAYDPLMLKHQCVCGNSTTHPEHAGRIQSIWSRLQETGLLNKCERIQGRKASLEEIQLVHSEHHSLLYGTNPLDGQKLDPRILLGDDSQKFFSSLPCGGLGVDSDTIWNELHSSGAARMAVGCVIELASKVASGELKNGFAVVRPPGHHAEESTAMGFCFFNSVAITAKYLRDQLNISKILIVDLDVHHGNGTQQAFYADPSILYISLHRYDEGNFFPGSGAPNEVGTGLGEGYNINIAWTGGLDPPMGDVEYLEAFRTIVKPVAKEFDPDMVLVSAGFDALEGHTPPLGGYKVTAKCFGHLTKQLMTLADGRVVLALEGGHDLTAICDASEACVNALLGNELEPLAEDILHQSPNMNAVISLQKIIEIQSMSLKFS
Sequence of HDAC8 (Q9BY41 whole entry): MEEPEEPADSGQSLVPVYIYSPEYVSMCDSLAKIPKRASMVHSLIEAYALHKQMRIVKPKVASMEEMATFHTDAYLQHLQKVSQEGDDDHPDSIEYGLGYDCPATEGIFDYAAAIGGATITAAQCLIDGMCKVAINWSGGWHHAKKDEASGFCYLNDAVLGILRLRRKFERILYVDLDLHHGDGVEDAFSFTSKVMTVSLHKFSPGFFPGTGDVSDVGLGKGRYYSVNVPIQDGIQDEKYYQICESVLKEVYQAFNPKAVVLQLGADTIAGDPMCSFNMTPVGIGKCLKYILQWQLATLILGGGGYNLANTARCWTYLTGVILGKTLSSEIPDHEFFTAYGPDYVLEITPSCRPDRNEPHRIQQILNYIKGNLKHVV
Sequence of HDAC2 (Q92769 whole entry): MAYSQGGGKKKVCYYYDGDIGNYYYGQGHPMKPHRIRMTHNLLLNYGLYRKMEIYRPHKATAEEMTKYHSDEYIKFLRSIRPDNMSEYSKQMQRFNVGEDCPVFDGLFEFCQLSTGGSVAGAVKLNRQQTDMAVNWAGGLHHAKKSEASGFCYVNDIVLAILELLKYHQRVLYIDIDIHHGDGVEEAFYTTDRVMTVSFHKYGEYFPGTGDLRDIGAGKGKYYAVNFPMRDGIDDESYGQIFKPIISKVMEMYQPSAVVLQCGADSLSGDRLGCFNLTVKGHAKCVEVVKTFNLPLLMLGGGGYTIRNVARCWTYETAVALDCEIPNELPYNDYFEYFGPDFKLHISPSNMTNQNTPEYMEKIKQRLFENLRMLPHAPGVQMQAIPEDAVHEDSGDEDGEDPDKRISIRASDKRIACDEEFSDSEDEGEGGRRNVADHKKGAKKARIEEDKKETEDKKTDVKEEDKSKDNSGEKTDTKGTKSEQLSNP

- IC50 (HDAC2): 23.5 ± 1.03 nM
- IC50 (HDAC7): > 50 µM
- activity for HDAC7 (in words) (HDAC7): no activity
- IC50 (HDAC8): > 50 µM
- activity for HDAC8 (in words) (HDAC8): no activity
- IC50 (HDAC9): > 50 µM
- activity for HDAC9 (in words) (HDAC9): no activity
- IC50 (HDAC11): 1800 ± 106 nM
- inhibition of HDAC11 (in words) (HDAC11): weak inhibition
- IC50 [1]: 1540 ± 30 nM
SMILES: COc1ccc(CN2[C@@H](C(=O)NCCCCCCC(=O)NO)Cc3c([nH]c4ccccc34)[C@@H]2C2CC2)cc1 [Compound 13d, (1S,3R)-1-Cyclopropyl-N-(7-(hydroxyamino)-7-oxoheptyl)-2-(4-methoxybenzyl)-2,3,4,9-tetrahydro-1H-pyrido[3,4-b]indole-3-carboxamide]
- inhibition at 10 µM (HL60): 96.6%
- inhibition at 10 µM (K-562): 92.5%
- inhibition at 10 µM (RPMI-8226): 84.3%
- inhibition at 10 µM (A549/ATCC): 82.7%
- inhibition at 10 µM (EKVX): 83.2%
- inhibition at 10 µM (HOP-62): 86%
- inhibition at 10 µM (HOP-92): 100%
- inhibition at 10 µM (NCI-H226): 71.9%
- inhibition at 10 µM (NCI-H23): 100%
- inhibition at 10 µM (NCI-H322M): 90.5%
- inhibition at 10 µM (NCI-H522): 100%
- inhibition at 10 µM (COLO 205): 100%
- inhibition at 10 µM (KM12): 87.5%
- inhibition at 10 µM (SF-295): 100%
- inhibition at 10 µM (U251): 100%
- inhibition at 10 µM (MALME-3M): 98.5%
- inhibition at 10 µM (M14): 82.4%
- inhibition at 10 µM (UACC-257): 90.1%
- inhibition at 10 µM (OVCAR-3): 96.8%
- inhibition at 10 µM (OVCAR-4): 59.4%
- inhibition at 10 µM (OVCAR-8): 97.3%
- inhibition at 10 µM (NCI/ADR-RES): 38%
- inhibition at 10 µM (786-0): 82.7%
- inhibition at 10 µM (A498): 100%
- inhibition at 10 µM (SN12C): 92.2%
- inhibition at 10 µM (PC-3): 80.9%
- inhibition at 10 µM (BT-549): 74.5%
